One data set addresses T1, Human αvβ3 (Homo sapiens, UniProt P05106+P06756).
T1 construct: purchased Chemicon International Inc., Temecula, Calif
The data set is described as follows: In vitro solid phase purified αvβ3 binding assay (vitronectin/αvβ3). Here is the method: In Vitro Solid Phase Purified αvβ3 Binding Assay
(§1) The vitronectin/αvβ3 binding assay methods were derived from Mehta et al. (Biochem J. 1998, 330, 861). Human αvβ3 (Chemicon International Inc., Temecula, Calif.), at a concentration of 1 μg/ml dissolved in Tris buffer (20 mM Tris, 1 mM CaCl2, […], 10 μM MnCl2, 150 mM NaCl), was immobilized on Immulon 96 well plates (Dynex Technologies, Chantilly, Va.) overnight at 4° C. Plates were washed and treated with blocking buffer (3% BSA in Tris buffer) for 2 h at 37° C. Plates were then rinsed 2 times with Tris buffer containing 0.3% BSA and 0.2% Tween20 (polyoxyethylenesorbitan monolaurate). Five minutes prior to the addition of 5 nM vitronectin (Sigma, St. Louis, Mo.), synthesized compounds were added to wells in duplicate. Each plate included c-RGDfV as an internal control. Following a 3 hour incubation at 37° C., plates were washed 5 times in assay buffer. An anti-human vitronectin IgG rabbit polyclonal antibody (Calbiochem, San Diego, Calif.) was added (1:2000) and plates were incubated for 1 hour at room temperature. VectaStain ABC peroxidase kit reagents (Vector Laboratories, Burlingame, Calif.) employing a biotin labeled anti-rabbit IgG, were utilized for detection of bound antibody. Plates were read at 490 nm on a Molecular Devices (Sunnyvale, Calif.) microplate reader.

The target of data set [1] is RGD-affinity purified GPIIb/IIIa (Homo sapiens, UniProt P05106+P08514). Briefly: In vitro solid phase purified GPIIb/IIIa binding assay (biotinylated fibrinogen). As to conditions: fibrinogen binding to immobilized GPIIb/IIIa; read-out: IIb/IIIa IC50. Here is the method:
In Vitro Solid Phase Purified GP IIB/IIIA Binding Assay
The plate was covered and incubated overnight at 4° C. The GPIIb/IIIa solution was discarded and 150 μl of 5% BSA was added and incubated at RT for 1-3 h. The plate was washed extensively with modified Tyrodes buffer. Biotinylated fibrinogen (25 μl/well) at 2× final concentration was added to the wells that contain the test compounds (25 μl/well). The plate was covered and incubated at RT for 2-4 h. Twenty minutes prior to incubation completion, one drop of Reagent A (VectaStain ABC Horse Radish Peroxidase kit, Vector Laboratories, Inc.) and one drop Reagent B were added with mixing to 5 mL modified Tyrodes buffer mix and let stand. The ligand solution was discarded and the plate washed (5×200 μl/well) with modified Tyrodes buffer. Vecta Stain HRP-Biotin-Avidin reagent (50 μl/well, as prepared above) was added and incubated at RT for 15 min. The Vecta Stain solution was discarded and the wells washed (5×200 μl/well) with modified Tyrodes buffer. Developing buffer (10 mL of 50 mM citrate/phosphate buffer @ pH 5.3, 6 mg o-phenylenediamine, 6 μl 30% H2O2; 50 μl/well) was added and incubated at RT for 3-5 min, and then 2 NH2SO4 (50 μl/well) was added. The absorbance was read at 490 nm.

The next data set deals with T2, human purified αvβ5 (Homo sapiens, UniProt P06756+P18084).
T2 construct: purchased Chemicon International, Inc
T2 sequence (P06756 31-889 limits assumed): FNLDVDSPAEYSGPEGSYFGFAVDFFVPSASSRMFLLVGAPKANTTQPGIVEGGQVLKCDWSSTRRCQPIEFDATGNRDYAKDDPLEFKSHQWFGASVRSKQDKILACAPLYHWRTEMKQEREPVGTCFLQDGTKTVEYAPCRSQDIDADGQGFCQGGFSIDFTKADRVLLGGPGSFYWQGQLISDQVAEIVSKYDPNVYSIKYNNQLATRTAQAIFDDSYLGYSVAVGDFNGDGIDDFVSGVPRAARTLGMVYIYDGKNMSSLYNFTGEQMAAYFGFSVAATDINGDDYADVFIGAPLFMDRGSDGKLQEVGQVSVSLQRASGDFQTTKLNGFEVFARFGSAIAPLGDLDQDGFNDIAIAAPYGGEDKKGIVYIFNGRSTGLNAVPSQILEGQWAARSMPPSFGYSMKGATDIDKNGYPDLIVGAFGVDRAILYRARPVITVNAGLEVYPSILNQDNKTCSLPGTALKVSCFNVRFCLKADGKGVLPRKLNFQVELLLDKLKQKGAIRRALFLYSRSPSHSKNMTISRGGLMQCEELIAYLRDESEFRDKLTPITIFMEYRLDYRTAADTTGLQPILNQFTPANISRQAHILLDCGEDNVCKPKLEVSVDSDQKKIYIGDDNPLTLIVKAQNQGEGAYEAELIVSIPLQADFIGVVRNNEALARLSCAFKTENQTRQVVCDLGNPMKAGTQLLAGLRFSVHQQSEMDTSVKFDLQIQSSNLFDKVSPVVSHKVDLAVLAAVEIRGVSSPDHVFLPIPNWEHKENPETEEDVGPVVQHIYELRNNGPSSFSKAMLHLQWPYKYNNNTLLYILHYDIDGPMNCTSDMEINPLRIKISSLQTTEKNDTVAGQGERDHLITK
T2 sequence (P06756 891-1048 partner limits assumed): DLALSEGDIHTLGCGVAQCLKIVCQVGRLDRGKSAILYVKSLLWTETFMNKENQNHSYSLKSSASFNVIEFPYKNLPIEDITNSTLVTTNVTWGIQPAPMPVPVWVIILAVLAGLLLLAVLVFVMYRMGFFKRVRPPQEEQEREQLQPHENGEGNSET
T2 sequence (P18084 24-799): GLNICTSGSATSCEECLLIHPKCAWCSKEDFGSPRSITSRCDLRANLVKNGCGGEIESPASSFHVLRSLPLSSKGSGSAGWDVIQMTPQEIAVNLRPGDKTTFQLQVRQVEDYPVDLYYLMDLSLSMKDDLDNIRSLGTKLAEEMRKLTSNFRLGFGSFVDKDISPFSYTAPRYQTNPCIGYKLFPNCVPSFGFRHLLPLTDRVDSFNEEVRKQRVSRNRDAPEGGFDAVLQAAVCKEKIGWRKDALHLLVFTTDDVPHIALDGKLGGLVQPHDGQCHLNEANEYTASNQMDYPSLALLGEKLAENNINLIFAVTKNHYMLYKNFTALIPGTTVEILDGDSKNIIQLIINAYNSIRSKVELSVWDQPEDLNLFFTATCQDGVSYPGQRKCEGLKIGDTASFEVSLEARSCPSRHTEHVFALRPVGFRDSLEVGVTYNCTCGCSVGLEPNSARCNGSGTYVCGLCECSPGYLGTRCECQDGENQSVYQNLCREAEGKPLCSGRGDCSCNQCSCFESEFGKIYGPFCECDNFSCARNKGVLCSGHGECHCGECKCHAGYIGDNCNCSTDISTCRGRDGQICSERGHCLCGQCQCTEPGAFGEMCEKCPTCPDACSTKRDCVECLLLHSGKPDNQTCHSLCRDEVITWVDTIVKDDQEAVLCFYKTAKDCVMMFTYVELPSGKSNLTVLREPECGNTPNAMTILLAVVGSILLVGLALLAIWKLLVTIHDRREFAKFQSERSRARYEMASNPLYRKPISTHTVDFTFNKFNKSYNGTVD
Briefly: In vitro solid phase purified αvβ5 binding assay (vitronectin/αvβ5). As to conditions: for inhibition at 5 µM: read-out: αvβ5 Percent inhibition at 5 μM; for IC50: vitronectin binding to immobilized αvβ5. How it is done: as §1
In Vitro Solid Phase Purified αvβ5 Binding Assay
The vitronectin/αvβ5 binding assay method was performed in the same manner as the vitronectin/αvβ3 binding assay (EXAMPLE 64) immobilizing with 1 μg/ml of human purified αvβ5 (Chemicon International, Inc.) on to Immulon 96 well plates (Dynex Technologies) instead of αvβ3. All other aspects of the assay including buffers, reagents, and incubation times remain unchanged.

Where [2] appears, read: vitronectin binding to immobilized αvβ3, read-out: αvβ3 IC50.

Like-named read-outs stand apart in the source and are kept apart here.

T1 sequence (P06756 31-889 limits assumed): as the sequence (P06756 31-889 limits assumed) above
T1 sequence (P06756 891-1048 partner limits assumed): as the sequence (P06756 891-1048 partner limits assumed) above
T1 sequence (P05106 27-788): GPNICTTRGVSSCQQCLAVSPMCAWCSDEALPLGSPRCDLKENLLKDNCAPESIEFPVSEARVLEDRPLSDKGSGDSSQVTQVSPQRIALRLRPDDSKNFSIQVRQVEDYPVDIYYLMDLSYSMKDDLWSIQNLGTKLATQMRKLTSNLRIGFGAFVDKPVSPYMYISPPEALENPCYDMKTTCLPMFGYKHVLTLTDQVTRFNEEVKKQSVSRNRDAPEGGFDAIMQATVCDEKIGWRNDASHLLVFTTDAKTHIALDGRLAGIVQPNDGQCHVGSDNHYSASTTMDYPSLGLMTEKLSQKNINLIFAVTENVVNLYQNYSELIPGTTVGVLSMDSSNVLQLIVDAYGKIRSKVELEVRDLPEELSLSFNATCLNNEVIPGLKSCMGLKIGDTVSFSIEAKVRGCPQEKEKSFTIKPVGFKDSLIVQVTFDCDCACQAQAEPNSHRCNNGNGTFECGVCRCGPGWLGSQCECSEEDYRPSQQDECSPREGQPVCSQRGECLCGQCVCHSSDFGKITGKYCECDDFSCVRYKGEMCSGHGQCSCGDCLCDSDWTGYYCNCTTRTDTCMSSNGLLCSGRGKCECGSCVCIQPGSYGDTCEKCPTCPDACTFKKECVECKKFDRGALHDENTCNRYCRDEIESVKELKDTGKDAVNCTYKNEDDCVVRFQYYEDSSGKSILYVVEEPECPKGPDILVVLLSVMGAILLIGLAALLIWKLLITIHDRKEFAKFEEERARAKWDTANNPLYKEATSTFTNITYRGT
RGD-affinity purified GPIIb/IIIa, sequence (P08514 32-887 limits assumed): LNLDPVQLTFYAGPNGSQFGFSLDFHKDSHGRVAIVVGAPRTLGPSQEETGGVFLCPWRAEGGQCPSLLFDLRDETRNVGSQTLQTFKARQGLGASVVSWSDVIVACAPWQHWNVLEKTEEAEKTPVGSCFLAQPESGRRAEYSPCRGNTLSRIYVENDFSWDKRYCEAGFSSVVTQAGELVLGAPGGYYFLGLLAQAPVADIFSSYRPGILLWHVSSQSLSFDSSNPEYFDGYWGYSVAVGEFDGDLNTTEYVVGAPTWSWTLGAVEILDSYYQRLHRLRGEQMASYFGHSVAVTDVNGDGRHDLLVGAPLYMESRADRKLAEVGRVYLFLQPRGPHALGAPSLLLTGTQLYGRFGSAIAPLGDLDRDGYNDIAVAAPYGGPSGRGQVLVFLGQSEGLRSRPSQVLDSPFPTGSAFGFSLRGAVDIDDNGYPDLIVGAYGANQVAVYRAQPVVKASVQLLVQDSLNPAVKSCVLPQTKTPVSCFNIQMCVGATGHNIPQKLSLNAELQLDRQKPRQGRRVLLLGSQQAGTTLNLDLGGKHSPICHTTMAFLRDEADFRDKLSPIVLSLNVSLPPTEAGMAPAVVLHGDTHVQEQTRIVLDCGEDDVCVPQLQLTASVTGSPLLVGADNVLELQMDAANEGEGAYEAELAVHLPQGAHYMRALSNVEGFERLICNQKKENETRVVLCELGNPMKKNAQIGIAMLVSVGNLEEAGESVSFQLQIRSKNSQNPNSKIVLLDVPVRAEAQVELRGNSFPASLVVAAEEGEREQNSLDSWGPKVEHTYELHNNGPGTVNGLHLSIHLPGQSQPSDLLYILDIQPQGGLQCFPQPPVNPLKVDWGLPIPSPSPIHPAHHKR
RGD-affinity purified GPIIb/IIIa, sequence (P08514 891-1039 partner limits assumed): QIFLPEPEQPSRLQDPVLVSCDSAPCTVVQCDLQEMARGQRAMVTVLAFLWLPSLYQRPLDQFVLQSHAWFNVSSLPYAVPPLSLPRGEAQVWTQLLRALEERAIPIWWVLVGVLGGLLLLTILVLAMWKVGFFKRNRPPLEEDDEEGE
RGD-affinity purified GPIIb/IIIa, sequence (P05106 27-788): as the sequence (P05106 27-788) above

Consider `CCN(CC)C(=O)COC(=O)CC(NC(=O)C1CCN(C(=O)CCCNC2=NCCN2C(=O)OC(C)(C)C)CC1)c1cnc2ccccc2c1` (stereo not shown) [Compound 45], for which the values for the IC50 (on Human αvβ3 (setting [2]); in data set [1]) were 3700 nM and 14000 nM, respectively. Besides, on human purified αvβ5, the inhibition at 5 µM came to 40%.

Turning to `O=C(O)C[C@H](NC(=O)C1CCN(C(=O)CCCNC2=NCCN2)CC1)c1cnc2ccccc2c1` [Compound 1, β-[[[1-[4-[(4,5-dihydro-1H-imidazol-2-yl)amino]-1-oxobutyl]-4-piperidinyl]carbonyl]amino]-, (β^3S)-3-quinolinepropanoic acid], the IC50 at Human αvβ3 worked out at 3.7 nM; in data set [1], 30 nM; at human purified αvβ5, 25 nM.

On to `CC(CNC1=NCCN1)C(=O)N1CCC(C(=O)N[C@@H](CC(=O)O)c2cccnc2)CC1` (stereo partly shown) [Compound 52], for which the IC50 on Human αvβ3 (setting [2]) was 250 nM; in data set [1] it was 2700 nM; at human purified αvβ5, 760 nM.

Take `O=C(N[C@@H](CNC(=O)C1CCN(C(=O)CCONC2=NCCN2)CC1)C(=O)O)OCc1ccccc1` [Compound 60]: the IC50 on Human αvβ3 (setting [2]) was 27 nM; in data set [1], 190 nM; on human purified αvβ5 it was 86 nM.

`C=CC(CCC(=O)N1CCC(C(=O)NC[C@H](NC(=O)OCc2ccccc2)C(=O)O)CC1)NC1=NCCN1` (stereo partly shown) [Compound 49]: the IC50 at Human αvβ3 (setting [2]) is 39 nM; in data set [1], 12 nM; at human purified αvβ5, 210 nM.

`O=C(N[C@@H](CNC(=O)C1CCN(C(=O)CCCNC2=NCCN2)CC1)C(=O)O)OCc1ccccc1` [Compound 2, 3-[[[1-[4-[(4,5-dihydro-1H-imidazol-2-yl)amino]-1-oxobutyl]-4-piperidinyl]carbonyl]amino]-N-[(phenylmethoxy)carbonyl]-L-alanine]: the IC50 is 5.8 nM at Human αvβ3 (setting [2]), 8.9 nM in data set [1] and 21 nM on human purified αvβ5.

Take `CCN(CC)C(=O)COC(=O)CC(NC(=O)C1CCN(C(=O)CCCNC2=NCCN2)CC1)c1cnc2ccccc2c1` (stereo not shown) [Compound 46]: the values for the IC50 (at Human αvβ3 (setting [2]); in data set [1]; on human purified αvβ5) were 150 nM, 1600 nM and above 5000 nM, respectively.

On to `O=C(O)CC(NC(=O)C1CCN(C(=O)CCONC2=NCCN2)CC1)c1ccc2c(c1)OCO2` (stereo not drawn) [Compound 61, β-[[[1-[3-[[(4,5-dihydro-1H-imidazol-2-yl)amino]oxy]-1-oxopropyl]-4-piperidinyl]carbonyl]amino]-1,3-benzodioxole-5-propanoic acid], for which the IC50 is 180 nM on Human αvβ3 (setting [2]) and 2700 nM in data set [1].

With `O=C(O)CC(NC(=O)C1CCN(C(=O)OCCNC2=NCCN2)CC1)c1ccc2c(c1)OCO2` (stereo not shown) [Compound 29], the IC50 at Human αvβ3 (setting [2]) is 34 nM; in data set [1], 210 nM.

Regarding `O=C(O)CC(NC(=O)C1CCN(C(=O)CCCNC2=NCCN2)CC1)c1cc(Cl)cc(Cl)c1` (stereo not shown) [Compound 26], the IC50 at Human αvβ3 (setting [2]) is 120 nM; in data set [1], 1800 nM.

Take `O=C(O)CC(NC(=O)C1CCN(C(=O)CCCNC2=NCCN2)CC1)c1ccc2c(c1)CCO2` (stereo not shown) [Compound 23]: the values for the IC50 (on Human αvβ3 (setting [2]); in data set [1]) were above 500 nM and 7300 nM, respectively.

Regarding `COc1ccc(C(CC(=O)O)NC(=O)C2CCN(C(=O)CCCNC3=NCCN3)CC2)cc1OC` (stereo not shown) [Compound 34], the IC50 at Human αvβ3 (setting [2]) is 29 nM; in data set [1], 1500 nM; on human purified αvβ5, above 5000 nM.

Turning to `O=C(N[C@@H](CNC(=O)C1CCN(C(=O)CCc2nc3ccccc3[nH]2)CC1)C(=O)O)OCc1ccccc1` [Compound 8], the results for the IC50 (at Human αvβ3 (setting [2]); in data set [1]) were 550 nM and 1100 nM, respectively.

Regarding `O=C(O)CC(NC(=O)C1CCN(C(=O)CCCNC2=NCCN2)CC1)c1cccc(C(F)(F)F)c1` (stereo not shown) [Compound 27], the IC50 on Human αvβ3 (setting [2]) is above 500 nM; in data set [1] it was 13000 nM.

For the compound `O=C(O)C[C@H](NC(=O)C1CCN(C(=O)CCCNC2=NCCN2)CC1)c1cccnc1` [Compound 33], the IC50 on Human αvβ3 (setting [2]) worked out at 19 nM; in data set [1], 1800 nM.

On to `COC(=O)C[C@H](NC(=O)C1CCN(C(=O)CCCNC2=NCCN2)CC1)c1cnc2ccccc2c1` [Compound 44], for which the figures for the IC50 (at Human αvβ3 (setting [2]); in data set [1]; on human purified αvβ5) were 28 nM, 360 nM and 2900 nM, respectively.

As to `O=C(N[C@@H](CNC(=O)C1CCN(C(=O)[C@@H]2C=C[C@H](NC3=NCCN3)C2)CC1)C(=O)O)OCc1ccccc1` [Compound 14, 3-[[[1-[[(1S,4R)-4-[(4,5-dihydro-1H-imidazol-2-yl)amino]-2-cyclopenten-1-yl]carbonyl]-4-piperidinyl]carbonyl]amino]-N-[(phenylmethoxy)carbonyl]-L-alanine], the IC50 on Human αvβ3 (setting [2]) came out at 50 nM; in data set [1], 9.2 nM.

Consider `C=CC(N)CCC(=O)N1CCC(C(=O)NC[C@H](NC(=O)OCc2ccccc2)C(=O)O)CC1` (stereo partly drawn) [Compound 50, 3-[[[1-(4-amino-1-oxo-5-hexenyl)-4-piperidinyl]carbonyl]amino]-N-[(phenylmethoxy)carbonyl]-L-alanine], for which the values for the IC50 (on Human αvβ3 (setting [2]); in data set [1]) were 3900 nM and 7.4 nM, respectively. Moreover, at human purified αvβ5, the inhibition at 5 µM was 38%.

Take `COC(=O)[C@H](CNC(=O)C1CCN(C(=O)C(C)CNC2=NCCN2)CC1)NC(=O)OCc1ccccc1` (stereo partly shown) [Compound 51]: the IC50 at Human αvβ3 (setting [2]) was found to be 270 nM; in data set [1], 290 nM; on human purified αvβ5, 2000 nM.

With `O=C(N[C@@H](CNC(=O)C1CCN(C(=O)C2CCN(C3=NCCN3)CC2)CC1)C(=O)O)OCc1ccccc1` [Compound 11, 3-[[[1-[[1-(4,5-dihydro-1H-imidazol-2-yl)-4-piperidinyl]carbonyl]-4-piperidinyl]carbonyl]amino]-N-[(phenylmethoxy)carbonyl]-L-alanine], the IC50 stood at 1300 nM at Human αvβ3 (setting [2]) and 2.6 nM in data set [1].

For the compound `O=C(O)C[C@H](NC(=O)C1CCN(C(=O)CC2(CNC3=NCCN3)CCCCC2)CC1)c1ccc(Cl)nc1` [Compound 19], the values for the IC50 (at Human αvβ3 (setting [2]); in data set [1]) were 320 nM and 71 nM, respectively.

As for `CC(CNC1=NCCN1)C(=O)N1CCC(C(=O)NC[C@H](NC(=O)OCc2ccccc2)C(=O)O)CC1` (stereo partly drawn) [Compound 16, 3-[[[1-[3-[(4,5-dihydro-1H-imidazol-2-yl)amino]-2-methyl-1-oxopropyl]-4-piperidinyl]carbonyl]amino]-N-[(phenylmethoxy)carbonyl]-L-alanine], the IC50 came out at 19 nM at Human αvβ3 (setting [2]), 18 nM in data set [1] and 38 nM on human purified αvβ5.

As to `NCCCC(=O)N1CCC(C(=O)NC[C@H](NC(=O)OCc2ccccc2)C(=O)O)CC1` [Compound 56], the IC50 was above 5000 nM on Human αvβ3 (setting [2]) and 49 nM in data set [1].

`O=C(O)C[C@H](NC(=O)C1CCN(C(=O)CCCNc2ccccn2)CC1)c1cnc2ccccc2c1` [Compound 6, β-[[[1-[1-oxo-4-(2-pyridinylamino)butyl]-4-piperidinyl]carbonyl]amino]-, (β^3S)-3-quinolinepropanoic acid]: the melting point lay in the range of 87 to 90 °C. Moreover, the IC50 on Human αvβ3 (setting [2]) amounted to 4 nM. Besides, the IC50 in data set [1] came out at 460 nM.

`O=C(N[C@@H](CNC(=O)C1CCN(C(=O)CC(CNC2=NCCN2)c2ccc(Cl)cc2)CC1)C(=O)O)OCc1ccccc1` (stereo partly shown) [Compound 18]: the IC50 is 50 nM on Human αvβ3 (setting [2]) and 15 nM in data set [1].

Consider `O=C(O)CC(NC(=O)C1CCN(C(=O)C2CCNCC2)CC1)c1cnc2ccccc2c1` (stereo not shown) [Compound 9], for which the IC50 at Human αvβ3 (setting [2]) stood at 30000 nM; in data set [1], 300 nM.

Take `N=C(N)NOCCC(=O)N1CCC(C(=O)NC[C@H](NC(=O)OCc2ccccc2)C(=O)O)CC1` [Compound 58]: the values for the IC50 (on Human αvβ3 (setting [2]); in data set [1]; at human purified αvβ5) were 40 nM, 260 nM and 71 nM, respectively.

Take `O=C(O)CC(NC(=O)C1CCN(C(=O)CCc2nc3ccccc3[nH]2)CC1)c1cccc2ccccc12` (stereo not shown) [Compound 15]: the results for the IC50 (on Human αvβ3 (setting [2]); in data set [1]) were above 5000 nM and 17000 nM, respectively.

Broadly, the inhibition is the change of the read-out against control, counted positive when it falls. A word on the melting point: it is the temperature, or range, at which the solid turns liquid.

Values taken from patent publication US7718673B2, “Isonipecotamides for the treatment of integrin-mediated disorders” (Ortho-McNeil Pharmaceutical, Inc., priority 1999, dated 2010).
